Results published in publication PMC11943016, “TBG096 Ameliorates Memory Deficiency in AD Mouse Model via Promoting Neurogenesis and Regulation of Hsc70/HK2/PKM2/LAMP2A Signaling Pathway” (International Journal of Molecular Sciences, 2025).

Experiments:
PC12 cells = assay: NGF-mimic activity: neurite outgrowth in PC12 cells; format: cell-based; conditions: 48 h
Protocol: The neurogenic activity of samples was evaluated according to the methods described in our previous study. Briefly, approximately 5 × 10^4 cells were seeded in each well of a 24-well microplate and were cultured under a humidified atmosphere with 5% CO2 at 37 °C for 24 h. Then, the medium in each well was replaced with 1 mL of serum-free DMEM containing 40 ng/mL NGF as a positive control, 0.5% DMSO as a negative control, and the test sample after 24 h, respectively. About 100–200 cells of each well were counted from a randomly selected area and repeated thrice after 48 h. A cell-bearing neurite outgrowth longer than the diameter of the cell body was identified as a positive cell. The activity was presented as the percentage of positive cells in the selected area.
In the inhibitor experiment of NGF-mimic activity, approximately 5 × 10^4 PC12 cells were seeded into each well of a 24-well plate and incubated for 24 h. After that, the medium in each well was replaced with 500 μL of serum-free DMEM or the serum-free DMEM containing VER155008, the inhibitor of Hsc70 protein, incubated in a CO2 incubator for 30 min. Subsequently, 500 μL of serum-free DMEM containing different samples was added and cultured, respectively. The PC12 cells with neurite outgrowth were recorded after 48 h. For the Western blot analysis, the experiment included five groups, namely the control (C) group, the NGF (40 ng/mL) group, the TBG096 (1 µM) group, the VER155008 (3 µM) group, and the VER155008 (3 µM) + TBG096 (1 µM) group. Afterwards, approximately 2 × 10^6 cells per dish were seeded into ten 6 cm Petri dishes with 5 mL of DMEM medium and incubated for 24 h. After giving different treatments with samples, the cells continued to culture for 4 h. Protein extraction was conducted to prepare for the subsequent Western blot analysis.

ICR mice = assay: Acute toxicity experiment in mice; format: in vivo
Protocol: In the acute toxicity experiment of mice, a total of 40 ICR male mice aged 8 weeks from Zhejiang Academy of Medical Sciences (Hangzhou, China) were used. A standard experimental scheme was adopted according to the requirements of Zhejiang University Animal Experiment Ethics Committee (animal use license number: SYXK(Zhe)2019-0002, permit number: ZJU20230219). The mice were randomly divided into the following groups: (i) control group, (ii) TBG096 100 mg/kg group, (iii) TBG096 300 mg/kg group, and (iv) TBG096 600 mg/kg group. Each group had 10 mice. Soybean oil was used as a vehicle to dissolve TBG096. The body weight, food intake, and water consumption of mice in each group were recorded every day for two weeks. Blood was collected for biochemical index analysis.

[1] = Brain concentration after oral administration in rats (BBB passage); format: in vivo
Protocol: In the pharmacokinetic analysis, a total of […] female SD rats aged 8 weeks from Zhejiang Academy of Medical Sciences (Hangzhou, China) (permit number: ZJU20240191) were used. A total of 15 rats were randomly divided into the following groups: (i) control group, (ii) TBG096 (14 mg/kg) oral administration group, and (iii) TBG096 (14 mg/kg) intravenous administration group. TBG096 was administered orally (dissolved in soybean oil) or intravenously (dissolved in Milli-Q water containing 2% Tween 80 and 5% ethanol) at 14 mg/kg after 12 h of fasting. Then, the blood from the posterior ocular venous plexus of rats was taken at 5, 15, 30, 60, 90, 120, 180, and 240 min after administration. […]
The collected blood was placed in a centrifuge tube (containing 20 µL heparin sodium solution) and centrifuged at 3000 rpm for 10 min to obtain a supernatant (plasma). […] The residue was dissolved in 100 µL of mobile phase, vortexed for 0.5 min, and centrifuged at 12,000 rpm for 3 min, and the supernatant was then prepared for HPLC analysis (Supersil Phenyl 5 µm (4.6 × 200 mm), elution with MeCN/H2O containing 0.1% formic acid (plasma samples: 57% MeCN/H2O, brain samples: 56% MeCN/H2O) for 30 min, flow rate: 1 mL/min, sample size: 20 µL, detected at 284 nm) and HR ESI-TOF-MS analysis.

BV-2 microglial cells = assay: Anti-inflammatory activity in LPS-treated BV-2 cells (Iba1 fluorescence); format: cell-based; conditions: 24 h
Protocol: BV-2 cells were obtained from Nanjing CoBioer Biotechnology Ltd., Co., Nanjing, China, and cultured in RPMI 1640 medium (Roswell Park Memorial Institute 1640 medium, Gibco, Grand Island, NY, USA) supplemented with 10% FBS and 1% penicillin/streptomycin. The anti-inflammatory activity of samples in BV-2 cells was determined as follows. Approximately 5 × 10^4 cells were seeded in each well of a 24-well microplate and were cultured under a humidified atmosphere with 5% CO2 at 37 °C for 24 h. Then, the medium was replaced by 500 µL RPMI 1640 medium containing 0.5% DMSO or samples at different concentrations for 2 h, and 500 µL medium containing LPS (1 µg/mL) was added and incubated for 24 h. Next, the medium of each well was sucked out, and each well was washed with phosphate-buffered saline (PBS) three times and fixed with 4% paraformaldehyde (500 µL/well) for 20 min at room temperature. The fixative was discarded, washed with PBS, and blocked for 60 min. […] After that, the cell nucleus was stained with diluted DAPI (SouthernBiotech, Birmingham, AL, USA) for 10 min, and the fluorescence image of BV-2 cells was observed under the fluorescence inverted microscope. Three regions were randomly selected to be observed and recorded with pictures. Image J software version 1.8.0 (National Institutes of Health, Bethesda, MD, USA) was finally used to analyze the fluorescence density of BV-2 cells.

O=C(SCCCCCCSCCCC(F)(F)F)c1cccc(O)c1O [TBG096]
percentage of PC12 cells exhibiting neurite growth (PC12 cells; 0.3, 1, and 3 µM, listed as 3): superior activity | NGF-mimic effect after treatment with VER155008 (Hsc70 inhibitor) (PC12 cells; PC12 cells): significantly diminished | acute toxicity in mice (ICR mice; mouse, in vivo): does not exhibit acute toxicity | body weight, food intake, water consumption (ICR mice; oral 100, 300, and 600 mg/kg, two weeks, mice): no significant differences | serum biochemical indices (AST, ALT, AST/ALT, ALB, DBIL) (ICR mice; oral 100, 300, and 600 mg/kg, vs control group, mice): no significant changes | ability to cross the BBB ([1]; brain samples 15 min after oral 14 mg/kg, HPLC and HR ESI-TOF-MS): has the ability to cross the BBB | concentration at 15 min ([1]; female, Sprague-Dawley, rat, brain, 15 min after single oral dose 14 mg/kg, rats): 81.7 ± 6.81 ng/g | LPS-induced overactivation of BV-2 cells (BV-2 microglial cells): dose-dependently inhibited | optimal concentration for inhibition of LPS-induced overactivation of BV-2 cells (BV-2 microglial cells): 0.3 µM
